Results on 59 compounds are retold here after US20080090805A1, “CB-1 MODULATING COMPOUNDS AND THEIR USE” (ACADIA PHARMACEUTICALS INC., priority 2005, published 2008).

In this assay the target is CB1 (mutant) (Homo sapiens, UniProt P21554). Kind of assay: R-SAT functional receptor assay, CB1 (mutant, truncated after amino acid 417). In kind it is cell-based. As to conditions: R-SAT CB1; for IC50 / pIC50: receptor form (mutant or wild-type) not stated; for % Inhibition / Emax: receptor form not stated, relative to SR141716 (100%); for Emax: read-out: % Inhibition.
Chain of CB1 (mutant) (P21554 1-417, change not shown): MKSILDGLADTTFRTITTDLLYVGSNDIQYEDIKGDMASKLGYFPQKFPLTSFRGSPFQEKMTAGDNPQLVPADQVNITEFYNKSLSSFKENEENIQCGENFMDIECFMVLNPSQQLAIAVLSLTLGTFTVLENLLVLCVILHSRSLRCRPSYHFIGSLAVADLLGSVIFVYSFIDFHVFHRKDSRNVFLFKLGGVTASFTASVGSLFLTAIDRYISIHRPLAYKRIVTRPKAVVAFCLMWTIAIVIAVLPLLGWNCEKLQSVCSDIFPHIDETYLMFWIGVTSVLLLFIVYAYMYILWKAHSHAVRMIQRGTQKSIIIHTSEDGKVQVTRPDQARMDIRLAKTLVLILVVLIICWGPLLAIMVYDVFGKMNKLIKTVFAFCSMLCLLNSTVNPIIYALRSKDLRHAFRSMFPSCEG

The mark [1] stands for this setting: Appendix A, read-out: pIC50 (converted).

The structures appear in SMILES notation. Where two headings read alike, the source gives them in different places.

For `O=C(NN1CCCCCC1)c1ccc2c(c1)N=C(c1cccc(Cl)c1)c1ccccc1S2` [drawing 721], under setting [1], the IC50 was 7.94 nM. Besides, the “% Inhibition” value (Appendix A) was found to be 105%.
Regarding `O=C(NNCc1ccccc1)c1ccc2c(c1)N=C(c1ccc(Cl)cc1)c1ccccc1S2`, the IC50 under setting [1] is 200 nM. Under “Appendix A”, the Emax stood at 66%.
Regarding `Cc1cccnc1C1=Nc2cc(C(=O)NCCC(C)C)ccc2Sc2ccccc21`, the IC50 under setting [1] is 63.1 nM. The Emax (Appendix A) is 94%.
For the compound `COc1ccc(C2=Nc3cc(C(=O)NCc4ccccn4)ccc3Sc3ccccc32)cc1`, the IC50 under setting [1] is 63.1 nM. The Emax (Appendix A) came to 93%.
Take `CON(C)C(=O)c1ccc2c(c1)N=C(c1ccccc1Cl)c1ccccc1S2`: under “Appendix A”, the pIC50 came to 1.0 and the Emax is 10%.
Turning to `O=C(NCCc1ccc(Cl)cc1)c1ccc2c(c1)N=C(c1ccccc1F)c1ccccc1S2` [drawing 1085], the Emax (Appendix A) was determined as 101%. This compound also gave an IC50 (pIC50, Appendix A) of 31.6 nM.
Consider `O=C(NCc1ccco1)c1ccc2c(c1)N=C(c1cccc(F)c1)c1ccccc1S2` [drawing 693], for which the Emax (Appendix A) was 104%. The compound further gave an IC50 (pIC50, Appendix A) of 6.31 nM.
In the case of `O=C(NCc1ccc(Cl)cc1Cl)c1ccc2c(c1)N=C(c1ccccc1F)c1ccccc1S2` [drawing 568], under setting [1], the IC50 was 50.1 nM. Also, where the note is “Appendix A”, the Emax is 85%.
`O=C(NCc1ccc(F)cc1)c1ccc2c(c1)N=C(c1cccc(Cl)c1)c1ccccc1S2` [drawing 715]: the Emax (Appendix A) was found to be 97%. Moreover, the IC50 (pIC50, Appendix A) is 7.94 nM.
Regarding `CON(C)C(=O)c1ccc2c(c1)N=C(c1ccc(Cl)s1)c1ccccc1S2`, the IC50 under setting [1] was 501 nM. Moreover, the Emax (Appendix A) amounted to 55%.
For `CC(C)CCNC(=O)c1ccc2c(c1)N=C(c1cccc(F)c1)c1ccccc1S2` [drawing 671], for the setting “Appendix A”, the Emax turned out to be 100%. Further, the IC50 (pIC50, Appendix A) was 6.31 nM.
Take `O=C(NCc1ccccc1)c1ccc2c(c1)N=C(c1ccccc1)c1ccccc1S2` [drawing 755]: the IC50 under setting [1] is 10 nM. The Emax (Appendix A) was 111%.
The matching figures for `O=C(NCc1ccc(Cl)cc1Cl)c1ccc2c(c1)N=C(c1ccc(F)cc1)c1ccccc1S2` [drawing 1057]: 31.6 nM and 96%.
As to `O=C(NN1CCCCC1)c1ccc2c(c1)N=C(Nc1ccccc1)c1ccccc1S2`, the IC50 under setting [1] is 2000 nM. In addition, the Emax (Appendix A) is 92%.
Turning to `O=C(NCCc1ccccc1)c1ccc2c(c1)N=C(c1cccc(Cl)c1)c1ccccc1S2` [drawing 731], the Emax (Appendix A) is 104%. The compound further had an IC50 (pIC50, Appendix A) of 7.94 nM.
On to `CCCNC(=O)c1ccc2c(c1)N=C(c1ccc(Cl)cc1)c1ccccc1S2` [drawing 969], for which the IC50 under setting [1] was 20 nM. Under “Appendix A”, the “% Inhibition” value turned out to be 105%.
Consider `CONC(=O)c1ccc2c(c1)N=C(c1ccc(Cl)cc1F)c1ccccc1S2`, for which, under setting [1], the IC50 was 200 nM. Besides, the Emax (Appendix A) stood at 69%.
The matching figures for `CCCCN(C)C(=O)c1ccc2c(c1)N=C(c1ccccn1)c1ccccc1S2`: 1000 nM and 57%.
The corresponding values for `O=C(NN1CCCCC1)c1ccc2c(c1)N=C(c1ccc(F)c(Cl)c1)c1ccccc1S2` [drawing 817] are 12.6 nM and 108%.
Take `Cc1csc(CNC(=O)c2ccc3c(c2)N=C(c2ccc(F)cc2)c2ccccc2S3)c1` [drawing 732]: the IC50 under setting [1] is 79.4 nM. The Emax (Appendix A) came to 80%.
The matching figures for `O=C(NNC(=O)c1ccc2c(c1)N=C(c1ccc(F)cc1)c1ccccc1S2)c1ccccc1` [drawing 764]: 100 nM and 83%.
The matching figures for `CCOCCNC(=O)c1ccc2c(c1)N=C(c1ccc(C#N)cc1)c1ccccc1S2` [drawing 788]: 100 nM and 74%.
As to `CCCC1=Nc2cc(C(=O)NCCCN3CCN(c4ccccc4F)CC3)ccc2Sc2ccccc21`, under setting [1], the IC50 is 398 nM. In addition, the Emax (Appendix A) worked out at 120%.
The corresponding values for `CCCCNC(=O)c1cc2c(cc1O)Sc1ccccc1C(c1ccc(Cl)cc1)=N2` [drawing 552] are 50.1 nM and 95%.
Regarding `CCCCNC(=O)c1ccc2c(c1)N=C(c1cccc(Cl)c1)c1cc(Cl)ccc1S2` [drawing 997], the IC50 under setting [1] was 25.1 nM. For the setting “Appendix A”, the Emax was 110%.
The matching figures for `O=C(NC1CCCC1)c1ccc2c(c1)N=C(c1ccc(Cl)s1)c1ccccc1S2` [drawing 1139]: 39.8 nM and 86%.
Regarding `CCCCNC(=O)c1ccc2c(c1)N=C(c1ccc(Cl)c(F)c1)c1ccccc1S2` [drawing 769], the IC50 under setting [1] is 10 nM. The Emax (Appendix A) is 106%.
Turning to `CCONC(=O)c1ccc2c(c1)N=C(c1ccccn1)c1ccccc1S2`, for the setting “Appendix A”, the negative logarithm of the IC50 (pIC50) was determined as 1.0 and the Emax amounted to 3%.
In the case of `Cc1ccsc1C1=Nc2cc(C(=O)NCc3ccco3)ccc2Sc2ccccc21` [drawing 855], the IC50 under setting [1] is 12.6 nM. Besides, where the note is “Appendix A”, the Emax amounted to 100%.
On to `O=C(NC1CCC(F)(F)CC1)c1ccc2c(c1)N=C(c1ccccn1)c1ccccc1S2` [drawing 564], for which the IC50 under setting [1] was 50.1 nM. Moreover, the Emax (Appendix A) came out at 79%.
The matching figures for `O=C(NN1CCCCCC1)c1ccc2c(c1)N=C(c1ccc(Cl)cc1)c1ccccc1S2` [drawing 624]: 63.1 nM and 103%.
As for `CCCC1=Nc2cc(C(=O)NCCCN3CCN(c4ccc(OC)cc4)CC3)ccc2Sc2ccccc21`, under setting [1], the IC50 was 2510 nM. Further, the Emax (Appendix A) is 79%.
The matching figures for `COCCNC(=O)c1ccc2c(c1)N=C(c1cccc(F)c1)c1ccccc1S2` [drawing 1025]: 25.1 nM and 115%.
The corresponding values for `Cc1ccc(CNC(=O)c2ccc3c(c2)N=C(c2ccc(Cl)c(Cl)c2)c2ccccc2S3)o1` [drawing 801] are 10 nM and 100%.
As to `CCOCCNC(=O)c1ccc2c(c1)N=C(c1ccc(C(=O)OCC)cc1)c1ccccc1S2`, the IC50 under setting [1] was 158 nM. For the setting “Appendix A”, the Emax was 77%.
For `CONC(=O)c1ccc2c(c1)N=C(c1ccc(Cl)cc1Cl)c1ccccc1S2`, for the setting “Appendix A”, the negative-log IC50 (pIC50) was determined as 1.0 and the Emax is -27%.
As for `Cc1ccc(CNC(=O)c2ccc3c(c2)N=C(c2cccc(F)c2)c2ccccc2S3)o1` [drawing 947], for the setting “Appendix A”, the Emax was determined as 69%. Also, the IC50 (pIC50, Appendix A) is 20 nM.
Consider `O=C(NOc1cccc(Cl)c1)c1ccc2c(c1)N=C(C1CCCCC1)c1cc(F)ccc1S2`, for which the IC50 under setting [1] was 39.8 nM. The Emax (Appendix A) is 100%.
For `Cc1ccsc1C1=Nc2cc(C(=O)NC(C)C)ccc2Sc2ccccc21` [drawing 684], the IC50 under setting [1] is 63.1 nM. The Emax (Appendix A) is 95%.
The matching figures for `CC(C)CNC(=O)c1ccc2c(c1)N=C(c1ccc(Cl)cc1F)c1ccccc1S2` [drawing 613]: 3.98 nM and 110%.
In the case of `CCCCNC(=O)c1ccc2c(c1)N=C(c1ccc(Cl)s1)c1ccccc1S2` [drawing 575], the IC50 under setting [1] was 3.16 nM. Moreover, the “% Inhibition” value (Appendix A) is 97%.
In the case of `CCCC1=NC2=C(CCC(C(=O)NCCN(CC)CCNc3cc(Cl)ccc3C)=C2)Sc2ccccc21`, under setting [1], the IC50 is 158 nM. The Emax (Appendix A) stood at 113%.
Regarding `O=C(NCc1cccc(Cl)c1)c1ccc2c(c1)N=C(N1CCCCC1)c1ccccc1S2(=O)=O` [drawing 939], the Emax (Appendix A) turned out to be 91%. Moreover, the IC50 (pIC50, Appendix A) was 20 nM.
Regarding `O=C(NCCC(F)(F)F)c1ccc2c(c1)N=C(c1ccsc1)c1ccccc1S2` [drawing 607], the Emax (Appendix A) turned out to be 97%. The same compound showed an IC50 (pIC50, Appendix A) of 3.98 nM.
Consider `CC(CNC(=O)c1ccc2c(c1)N=C(c1cccc(Cl)c1)c1ccccc1S2)c1ccccc1` (stereo not shown) [drawing 587], for which the IC50 under setting [1] is 3.16 nM. Besides, under “Appendix A”, the Emax is 112%.
The matching figures for `CN(NC(=O)c1ccc2c(c1)N=C(c1ccccc1F)c1ccccc1S2)C1CCCCC1`: 316 nM and 74%.
In the case of `CCOC(=O)c1ccc(C2=Nc3cc(C(=O)NCc4cccnc4)ccc3Sc3ccccc32)cc1` [drawing 850], the IC50 under setting [1] is 158 nM. Also, the Emax (Appendix A) came to 73%.
The matching figures for `O=C(NCc1cccc(Cl)c1)c1ccc2c(c1)N=C(c1ccccc1F)c1ccccc1S2` [drawing 1083]: 31.6 nM and 99%.
The corresponding values for `CC(C)CNC(=O)c1ccc2c(c1)N=C(c1ccc(Cl)cc1)c1ccc(F)cc1S2` [drawing 949] are 20 nM and 110%.
As for `COCCNC(=O)c1ccc2c(c1)N=C(c1ccccn1)c1ccccc1S2`, the IC50 under setting [1] is 398 nM. In addition, the Emax (Appendix A) stood at 71%.
In the case of `O=C(NN1CCCCC1)c1ccc2c(c1)N=C(c1cccc(F)c1)c1ccccc1S2` [drawing 929], the Emax (Appendix A) came to 111%. The compound also gave an IC50 (pIC50, Appendix A) of 15.8 nM.
Take `O=C(NCc1cccnc1)c1ccc2c(c1)N=C(c1ccc(Cl)cc1)c1ccccc1S2` [drawing 1093]: the IC50 under setting [1] is 31.6 nM. Besides, the Emax (Appendix A) is 88%.
The matching figures for `Cc1cccnc1C1=Nc2cc(C(=O)NCCc3cccnc3)ccc2Sc2ccccc21`: > 5010 nM and 28%.
The corresponding values for `CCCCNC(=O)c1ccc2c(c1)N=C(c1ccc(Cl)cc1)c1ccccc1[S+]2[O-]` (stereo not shown) [drawing 666] are 63.1 nM and 97%.
The corresponding values for `CCCCNC(=O)c1ccc2c(c1)N=C(C1CCCCC1)c1ccccc1S2` [drawing 937] are 20 nM and 106%.
Consider `CCCCNC(=O)c1ccc2c(c1)N=C(c1ccc(Cl)s1)c1ccc(F)cc1S2` [drawing 1010], for which the IC50 under setting [1] is 501 nM. In addition, the Emax (Appendix A) was 101%.
As for `O=C(NCCC(F)(F)F)c1ccc2c(c1)N=C(c1cccc(Cl)c1)c1ccccc1S2` [drawing 549], the IC50 under setting [1] was 1.58 nM. The Emax (Appendix A) is 96%.
The matching figures for `O=C(NCc1cccs1)c1ccc2c(c1)N=C(c1ccc(F)cc1)c1ccccc1S2` [drawing 571]: 2.51 nM and 97%.
The corresponding values for `CC(C)CNC(=O)c1ccc2c(c1)N=C(c1ccc(Cl)s1)c1ccc(Cl)cc1S2` [drawing 983] are 25.1 nM and 110%.

As usually defined, the % Inhibition is the change of the read-out against control, counted positive when it falls. What is called pIC50 is the negative decadic logarithm of the IC50, by convention in mol/L. A higher pIC50 goes with a small IC50.
